Calls of active or inactive are those of the source.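 The calls were made as follows: active = EC50 under 50 µM in a live-cell viability test; inactive = the rest.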
Tested on: HL60 proliferation, XTT absorbance
Assay: antiproliferative activity against HL60 AML cells – cell-based, XTT absorbance, dose response (AID 1794805)

Row | SMILES | EC50
1 | O=C(NCC1CCNCC1)c1c[nH]c2cc(-c3ccc(N4CCCC4)cc3)ccc12 | 50 µM
2 | O=C(NCC1CCNCC1)c1coc2cc(-c3ccc(N4CCCCC4)cc3)ccc12 | 9.7 µM
3 | O=C(NCC1CCNCC1)c1cc2cc(-c3cn[nH]c3)ccc2[nH]1 | > 51 µM (inactive)
4 | O=C(NCC1CCNCC1)c1cc2ccc(-c3ccc(N4CCCC4)cc3)cc2s1 | 26 µM
5 | O=C(NCC1CCNCC1)c1cc2ccc(-c3ccc(N4CCCCC4)cc3)cc2s1 | 10 µM
6 | NC(=O)c1ccc(-c2ccc3cc(C(=O)NCC4CCNCC4)sc3c2)cc1 | > 51 µM (inactive)
7 | O=C(NCC1CCNCC1)c1cc2cc(-c3ccc(N4CCCCC4)cc3)ccc2[nH]1 | 50 µM
8 | O=C(NCC1CCNCC1)c1cc2cc(-c3ccc(N4CCCCC4)cc3)ccc2s1 | 9 µM
9 | O=C(NCC1CCNCC1)c1c[nH]c2cc(-c3ccc(N4CCCCC4)cc3)ccc12 | 50 µM
10 | NCc1ccc(-c2ccc3cc(C(=O)NCC4CCNCC4)oc3c2)cc1 | > 51 µM (inactive)

From PubChem BioAssay AID1794805 (Yongcheng Song lab at Baylor College of Medicine, 2022)
